Tests used:
Type in all cases: in vivo
[1] = system: Echinochloa crus-galli; test: Post-emergence herbicidal activity against ECHCG; conditions: dosage 320 g/ha, rated visually after about 3 weeks
Description: (§1) [table] Seeds of monocotyledonous and dicotyledonous weeds and crop plants are placed in sandy loam in plastic or wood-fiber pots, covered with soil and cultivated in a greenhouse under controlled growth conditions. 2 to 3 weeks after sowing, the test plants are treated at the one-leaf stage. The compounds of the invention, formulated in the form of wettable powders (WP) or as emulsion concentrates (EC), are then sprayed onto the green parts of the plants as aqueous suspension or emulsion with addition of 0.5% additive at a water application rate of 600 l/ha (converted). After the test plants had been kept in the greenhouse under optimum growth conditions for about 3 weeks, the activity of the preparations is rated visually in comparison to untreated controls. For example, 100% activity=the plants have died, 0% activity=like control plants.

[2] = system: Alopecurus myosuroides; test: Pre-emergence herbicidal activity against ALOMY; conditions: dosage 80 g/ha, scored visually after about 3 weeks vs untreated controls
Description: (§2) 1. Pre-emergence herbicidal action against harmful plants and crop plant compatibility Seeds of monocotyledonous and dicotyledonous weed plants and crop plants are placed in plastic or wood fiber pots and covered with soil. The compounds of the invention, formulated in the form of wettable powders (WP) or as emulsion concentrates (EC), are then applied onto the surface of the covering soil as aqueous suspension or emulsion with addition of 0.5% additive at a water application rate of 600 l/ha (converted). After the treatment, the pots are placed in a greenhouse and kept under good growth conditions for the trial plants. After about 3 weeks, the effect of the preparations is scored visually in comparison with untreated controls as percentages. For example, 100% activity=the plants have died, 0% activity=like control plants. [table]

[3] = system: Lolium rigidum; test: Pre-emergence herbicidal activity against LOLRI; conditions: dosage 80 g/ha, scored visually after about 3 weeks vs untreated controls
Description: as §2

[4] = system: Setaria viridis; test: Post-emergence herbicidal activity against SETVI; conditions: dosage 320 g/ha, rated visually after about 3 weeks
Description: as §1

[5] = system: Polygonum convolvulus; test: Pre-emergence herbicidal activity against POLCO; conditions: dosage 80 g/ha, scored visually after about 3 weeks vs untreated controls
Description: as §2

[6] = system: Viola tricolor; test: Pre-emergence herbicidal activity against VIOTR; conditions: dosage 80 g/ha, scored visually after about 3 weeks vs untreated controls
Description: as §2

[7] = system: Pharbitis purpurea; test: Post-emergence herbicidal activity against PHBPU; conditions: dosage 320 g/ha, rated visually after about 3 weeks
Description: as §1

[8] = system: Echinochloa crus-galli; test: Pre-emergence herbicidal activity against ECHCG; conditions: dosage 80 g/ha, scored visually after about 3 weeks vs untreated controls
Description: as §2

[9] = system: Stellaria media; test: Post-emergence herbicidal activity against STEME; conditions: dosage 320 g/ha, rated visually after about 3 weeks
Description: as §1

[10] = system: Veronica persica; test: Pre-emergence herbicidal activity against VERPE; conditions: dosage 80 g/ha
Description: as §2

[11] = system: Hordeum murinum; test: Pre-emergence herbicidal activity against HORMU; conditions: dosage 80 g/ha
Description: as §2

[12] = system: Hordeum murinum; test: Post-emergence herbicidal activity against HORMU; conditions: dosage 320 g/ha, rated visually after about 3 weeks
Description: as §1

[13] = system: Amaranthus retroflexus; test: Post-emergence herbicidal activity against AMARE; conditions: dosage 320 g/ha, rated visually after about 3 weeks
Description: as §1

[14] = system: Pharbitis purpurea; test: Pre-emergence herbicidal activity against PHBPU; conditions: dosage 80 g/ha, scored visually after about 3 weeks vs untreated controls
Description: as §2

[15] = system: Avena fatua; test: Post-emergence herbicidal activity against AVEFA; conditions: dosage 320 g/ha, rated visually after about 3 weeks
Description: as §1

[16] = system: Viola tricolor; test: Post-emergence herbicidal activity against VIOTR; conditions: dosage 320 g/ha, rated visually after about 3 weeks
Description: as §1

[17] = system: Setaria viridis; test: Pre-emergence herbicidal activity against SETVI; conditions: dosage 80 g/ha, scored visually after about 3 weeks vs untreated controls
Description: as §2

[18] = system: Avena fatua; test: Pre-emergence herbicidal activity against AVEFA; conditions: dosage 80 g/ha, scored visually after about 3 weeks vs untreated controls
Description: as §2

[19] = system: Polygonum convolvulus; test: Post-emergence herbicidal activity against POLCO; conditions: dosage 320 g/ha, rated visually after about 3 weeks
Description: as §1

[20] = system: Stellaria media; test: Pre-emergence herbicidal activity against STEME; conditions: dosage 80 g/ha, scored visually after about 3 weeks vs untreated controls
Description: as §2

[21] = system: Lolium rigidum; test: Post-emergence herbicidal activity against LOLRI; conditions: dosage 320 g/ha, rated visually after about 3 weeks
Description: as §1

[22] = system: Veronica persica; test: Post-emergence herbicidal activity against VERPE; conditions: dosage 320 g/ha, rated visually after about 3 weeks
Description: as §1

[23] = system: Amaranthus retroflexus; test: Pre-emergence herbicidal activity against AMARE; conditions: dosage 80 g/ha, scored visually after about 3 weeks vs untreated controls
Description: as §2

[24] = system: Alopecurus myosuroides; test: Post-emergence herbicidal activity against ALOMY; conditions: dosage 320 g/ha, rated visually after about 3 weeks
Description: as §1

[25] = system: Abutilon theophrasti; test: Post-emergence herbicidal activity against ABUTH; conditions: dosage 320 g/ha, rated visually after about 3 weeks
Description: as §1

[26] = Pre-emergence herbicidal action against harmful plants (summary of the tables); conditions: 504 h, application rate of 0.08 kg of active substance or less per hectare, read-out: herbicidal action, pre-emergence treatment (very good activity)
Description: as §2, with “plants.” for “plants. [table]”
As shown by the results, compounds according to the invention such as, for example, the compounds No. I-02 and other compounds from the tables (I-05, I-10, I-11, I-12, I-13, I-14, I-15, I-16, I-17, I-18, I-19, I-20, I-21, I-22, I-23, I-24, I-25, I-26, I-27, I-28, I-29) have, when used for pre-emergence treatment, very good activity (80% to 100% herbicidal action) against harmful plants such as Abutilon theophrasti, Alopecurus myosuroides, Amaranthus retroflexus, Avena fatua, Cyperus esculentus, Echinochloa crus-galli, Hordeum murinum, Lolium rigidum, Pharbitis purpurea, Polygonum convolvulus, Setaria viridis, Stellaria media, Veronica persica and Viola tricolor at an application rate of 0.08 kg of active substance or less per hectare.

## C=C[C@]1(C(=O)N[C@@H]2CO[C@H](C(=O)NCC(=O)OC)C2)CC(c2cc(F)cc(F)c2)=NO1 [Example I-21]
[1]
  Post-emergence herbicidal activity in % against ECHCG: 90%
[2]
  Pre-emergence herbicidal activity in % against ALOMY: 100%
[3]
  Pre-emergence herbicidal activity in % against LOLRI: 100%
[4]
  Post-emergence herbicidal activity in % against SETVI: 90%
[5]
  Pre-emergence herbicidal activity in % against POLCO: 100%
[6]
  Pre-emergence herbicidal activity in % against VIOTR: 100%
[7]
  Post-emergence herbicidal activity in % against PHBPU: 90%
[8]
  Pre-emergence herbicidal activity in % against ECHCG: 100%
[9]
  Post-emergence herbicidal activity in % against STEME: 90%
[10]
  Pre-emergence herbicidal activity in % against VERPE: 90%
[11]
  Pre-emergence herbicidal activity in % against HORMU: 90%
[12]
  Post-emergence herbicidal activity in % against HORMU: 100%
[13]
  Post-emergence herbicidal activity in % against AMARE: 90%
[14]
  Pre-emergence herbicidal activity in % against PHBPU: 90%
[15]
  Post-emergence herbicidal activity in % against AVEFA: 100%
[16]
  Post-emergence herbicidal activity in % against VIOTR: 90%
[17]
  Pre-emergence herbicidal activity in % against SETVI: 100%
[18]
  Pre-emergence herbicidal activity in % against AVEVA (AVEFA): 100%
[19]
  Post-emergence herbicidal activity in % against POLCO: 90%
[20]
  Pre-emergence herbicidal activity in % against STEME: 90%
[21]
  Post-emergence herbicidal activity in % against LOLRI: 90%
[22]
  Post-emergence herbicidal activity in % against VERPE: 80%
[23]
  Pre-emergence herbicidal activity in % against AMARE: 100%
[24]
  Post-emergence herbicidal activity in % against ALOMY: 90%
[25]
  Post-emergence herbicidal activity in % against ABUTH: 90%

## C=C[C@]1(C(=O)N[C@@H]2CO[C@H](C(=O)NN(C)C)C2)CC(c2cc(F)cc(F)c2)=NO1 (mixture of isomers) [Example I-15, (5S)-3-(3,5-difluorophenyl)-N-[cis-5-(dimethylaminocarbamoyl)tetrahydrofuran-3-yl]-5-vinyl-4H-isoxazole-5-carboxamide]
[1]; Echinochloa crus-galli, 504 h
  pest or weed control at 320 g/ha: 90%
[2]; Alopecurus myosuroides, 504 h
  pest or weed control at 80 g/ha: 100%
[3]; Lolium rigidum, 504 h
  pest or weed control at 80 g/ha: 100%
[4]; Setaria viridis, 504 h
  pest or weed control at 320 g/ha: 80%
[5]; Fallopia convolvulus, 504 h
  pest or weed control at 80 g/ha: 100%
[6]; Viola tricolor, 504 h
  pest or weed control at 80 g/ha: 100%
[7]; Ipomoea purpurea, 504 h
  pest or weed control at 320 g/ha: 80%
[8]; Echinochloa crus-galli, 504 h
  pest or weed control at 80 g/ha: 90%
[9]; Stellaria media, 504 h
  pest or weed control at 320 g/ha: 90%
[10]; Veronica persica, 504 h
  pest or weed control at 80 g/ha: 100%
[11]; Hordeum murinum, 504 h
  pest or weed control at 80 g/ha: 90%
[12]; Hordeum murinum, 504 h
  pest or weed control at 320 g/ha: 90%
[26]
  pest or weed control at 80 g/ha: 80 to 100%
[15]; Avena fatua, 504 h
  pest or weed control at 320 g/ha: 100%
[16]; Viola tricolor, 504 h
  pest or weed control at 320 g/ha: 80%
[17]; Setaria viridis, 504 h
  pest or weed control at 80 g/ha: 100%
[18]; Avena fatua, 504 h, read-out: Pre-emergence herbicidal activity in % against AVEVA (AVEFA)
  pest or weed control at 80 g/ha: 90%
[19]; Fallopia convolvulus, 504 h
  pest or weed control at 320 g/ha: 90%
[20]; Stellaria media, 504 h
  pest or weed control at 80 g/ha: 100%
[21]; Lolium rigidum, 504 h
  pest or weed control at 320 g/ha: 90%
[22]; Veronica persica, 504 h
  pest or weed control at 320 g/ha: 80%
[23]; Amaranthus retroflexus, 504 h
  pest or weed control at 80 g/ha: 100%
[24]; Alopecurus myosuroides, 504 h
  pest or weed control at 320 g/ha: 100%
[25]; Abutilon theophrasti, 504 h
  pest or weed control at 320 g/ha: 80%

## CN(C)C(=O)[C@@H]1C[C@H](NC(=O)[C@@]2(C)CC(c3cc(F)cc(F)c3)=NO2)CO1 [Example I-25]
[2]
  Pre-emergence herbicidal activity in % against ALOMY: 100%
[3]
  Pre-emergence herbicidal activity in % against LOLRI: 100%
[4]
  Post-emergence herbicidal activity in % against SETVI: 80%
[5]
  Pre-emergence herbicidal activity in % against POLCO: 100%
[6]
  Pre-emergence herbicidal activity in % against VIOTR: 100%
[7]
  Post-emergence herbicidal activity in % against PHBPU: 90%
[8]
  Pre-emergence herbicidal activity in % against ECHCG: 80%
[9]
  Post-emergence herbicidal activity in % against STEME: 90%
[10]
  Pre-emergence herbicidal activity in % against VERPE: 90%
[12]
  Post-emergence herbicidal activity in % against HORMU: 90%
[13]
  Post-emergence herbicidal activity in % against AMARE: 80%
[14]
  Pre-emergence herbicidal activity in % against PHBPU: 90%
[15]
  Post-emergence herbicidal activity in % against AVEFA: 90%
[17]
  Pre-emergence herbicidal activity in % against SETVI: 100%
[18]
  Pre-emergence herbicidal activity in % against AVEVA (AVEFA): 90%
[19]
  Post-emergence herbicidal activity in % against POLCO: 80%
[20]
  Pre-emergence herbicidal activity in % against STEME: 100%
[21]
  Post-emergence herbicidal activity in % against LOLRI: 100%
[22]
  Post-emergence herbicidal activity in % against VERPE: 80%
[23]
  Pre-emergence herbicidal activity in % against AMARE: 100%
[24]
  Post-emergence herbicidal activity in % against ALOMY: 100%
[25]
  Post-emergence herbicidal activity in % against ABUTH: 80%

## C=C[C@]1(C(=O)N[C@@H]2CO[C@H](C(=O)NCCC(=O)OC)C2)CC(c2cc(F)cc(F)c2)=NO1 [Example I-20]
[1]
  Post-emergence herbicidal activity in % against ECHCG: 100%
[2]
  Pre-emergence herbicidal activity in % against ALOMY: 100%
[3]
  Pre-emergence herbicidal activity in % against LOLRI: 100%
[4]
  Post-emergence herbicidal activity in % against SETVI: 90%
[5]
  Pre-emergence herbicidal activity in % against POLCO: 100%
[6]
  Pre-emergence herbicidal activity in % against VIOTR: 100%
[7]
  Post-emergence herbicidal activity in % against PHBPU: 90%
[8]
  Pre-emergence herbicidal activity in % against ECHCG: 100%
[9]
  Post-emergence herbicidal activity in % against STEME: 80%
[11]
  Pre-emergence herbicidal activity in % against HORMU: 100%
[12]
  Post-emergence herbicidal activity in % against HORMU: 100%
[13]
  Post-emergence herbicidal activity in % against AMARE: 90%
[14]
  Pre-emergence herbicidal activity in % against PHBPU: 80%
[15]
  Post-emergence herbicidal activity in % against AVEFA: 100%
[16]
  Post-emergence herbicidal activity in % against VIOTR: 80%
[17]
  Pre-emergence herbicidal activity in % against SETVI: 100%
[18]
  Pre-emergence herbicidal activity in % against AVEVA (AVEFA): 100%
[19]
  Post-emergence herbicidal activity in % against POLCO: 80%
[20]
  Pre-emergence herbicidal activity in % against STEME: 100%
[21]
  Post-emergence herbicidal activity in % against LOLRI: 100%
[22]
  Post-emergence herbicidal activity in % against VERPE: 80%
[23]
  Pre-emergence herbicidal activity in % against AMARE: 100%
[24]
  Post-emergence herbicidal activity in % against ALOMY: 100%
[25]
  Post-emergence herbicidal activity in % against ABUTH: 80%
